The subject of series [1] is HCC-2998. Kind of series: NCI-60 single-dose screen. Particulars: Homo sapiens, single dose 10 µM, '-' = no inhibition, read-out: % Growth Inhibition. In kind it is cell-based. How it is done: (§1) The National Cancer Institute’s Developmental Therapeutic Program (www.dtp.nci.nih.gov) has tested compounds 9–29 (except compounds 21 and 22) against 60 cancer cell lines from nine types (leukemia, lung, colon, CNS, melanoma, ovarian, renal, prostate, and breast cancer) at a single dose (10 μM) ([El-Sherief et al., 2018]). […] The most sensitive cells included leukemia (SR, K-562, and MOLT-4), lung (NCI-H522, […], and EKVX), breast (MCF-7 and T-47D), colon (HCT-15 and HT-29), and ovarian (NCI/ADR-RES).
(§2) The National Cancer Institute’s Developmental Therapeutic Program (www.dtp.nci.nih.gov) evaluated compounds 9–29 (excluding 21 and 22) against 60 cancer cell lines from nine categories (leukemia, lung, colon, CNS, melanoma, ovarian, renal, prostate, and breast cancer) at a single dose (10 μM) ([El-Sherief et al., 2018]). See Supplementary Material A1 for more details.

Series [2] concerns HS 578T. Kind of series: NCI-60 single-dose screen. It is filed as cell-based. To be noted: Homo sapiens, single dose 10 µM, '-' = no inhibition, read-out: % Growth Inhibition. How it is done:
as §1, §2

Series [3] relates to MCF7. Kind of series: NCI-60 single-dose screen. In kind it is cell-based. Particulars: Homo sapiens, single dose 10 µM, '-' = no inhibition, read-out: % Growth Inhibition. How it is done: as §1, §2
The subject of series [4] is SF-268. Kind of series: NCI-60 single-dose screen. In kind it is cell-based. Particulars: Homo sapiens, single dose 10 µM, '-' = no inhibition, read-out: % Growth Inhibition. How it is done:
as §1, §2

The subject of series [5] is SK-MEL-5. Kind of series: NCI-60 single-dose screen. It is filed as cell-based. To be noted: Homo sapiens, single dose 10 µM, '-' = no inhibition, read-out: % Growth Inhibition. How it is done: as §1, §2
A short description of series [6]: Cell viability assay (MTT) on normal cells. It is filed as cell-based. Particulars: human, MCF-10A normal mammary gland epithelial cells, 4 days incubation. Here is the method: This experiment examines the impact of the newly developed compounds 9–29 on normal cell lines to assess their safety level. The vitality of the investigated compounds was assessed using the MCF-10 A cell line, a normal human mammary gland epithelial cell line. Following 4 days of incubation on MCF-10 A cells with each examined compound at a concentration of 50 μM, the vitality of the cells was assessed using the MTT test ([Mahmoud et al., 2022]; [Mekheimer et al., 2022]).
This experiment examines the impact of the newly developed compounds 9–29 on normal cell lines to assess their safety level. The viability of 9–29 was assessed using the MCF-10 A cell line, a normal human mammary gland epithelial cell line. Following 4 days of incubation on MCF-10 A cells with each examined compound at a concentration of 50 μM, the vitality of the cells was assessed using the MTT test ([Mahmoud et al., 2022]; [Mekheimer et al., 2022]). Refer to Supplementary Material A1 for more details. […]
4.2. Biological evaluation
4.2.1. Cytotoxic activity using MTT Assay and evaluation of IC50
MTT assay was carried out to study the effect of compounds on mammary epithelial cells (MCF-10A). The medium in which cells were propagated contained Dulbecco's modified Eagle's medium (DMEM)/ Ham's F-12 medium (1:1) supplemented with epidermal growth factor (20 ng/mL), hydrocortisone (500 ng/mL), insulin (10 μg/mL), 2 mM glutamine and 10% foetal calf serum.
After every 2-3 days, the cells were passaged using trypsin ethylenediamine tetra acetic acid (EDTA). The cells were seeded at a density of 10^4 cells mL-1 in flat-bottomed culture plates containing 96 wells each. After 24 h, medium was removed from the plates and the compounds in (in 0.1% DMSO) were added (in 200 μL medium to yield a final concentration of 0.1% v/v) to the wells of plates. A single compound was designated with four wells followed by incubation of plates for 96h at 37°C. After incubation, medium was removed completely from the plates followed by addition of MTT (0.4 mg/mL in medium) to each well and subsequent incubation of plates for 3h. MTT (along with the medium) was removed and DMSO (150μL) was added to each well of the culture plates, followed by vertexing and subsequent measurement of absorbance (at 540 nm) using microplate reader. The data are shown as percentage inhibition of proliferation in comparison with controls containing 0.1% DMSO. […]

Series [7] concerns A-549. Kind of series: Antiproliferative assay (MTT). It is filed as cell-based. Particulars: Homo sapiens, A549, A-549 (lung), read-out: Antiproliferative activity IC50 ± SEM, A-549. The text has this: (§3) The MTT test was employed for this investigation ([Hisham et al., 2022]; [El-Sherief et al., 2019]; [Ramadan et al., 2020]). Table 2 presents the four cancer cell lines’ median inhibitory concentration (IC50) and GI50 (average IC50) values.
(§4) The MTT test was employed for this investigation ([Hisham et al., 2022]; [El-Sherief et al., 2019]; [Ramadan et al., 2020]). The IC50 values were derived from dose-response tests. The reported data are derived from at least two independent studies, each comprising three replicates per concentration. See Supplementary Material A1 for more details.
(§5) (in 0.1% DMSO) were added (in 200 μL medium to yield a final concentration of 0.1% v/v) to the wells of plates. A single compound was designated with four wells followed by incubation of plates for 96h at 37°C. After incubation, medium was removed completely from the plates followed by addition of MTT (0.4 mg/mL in medium) to each well and subsequent incubation of plates for 3h. MTT (along with the medium) was removed and DMSO (150μL) was added to each well of the culture plates, followed by vertexing and subsequent measurement of absorbance (at 540 nm) using microplate reader. The data are shown as percentage inhibition of proliferation in comparison with controls containing 0.1% DMSO.
(§6) 4.2.1.2. Assay for antiproliferative effect […]
(§7) (10%) and 1 µg/mL each of aprotinin, leupeptin and pepstatin for 120 min. The purification was performed either at 4 °C or on ice. To record autophosphorylation level, EGFR kinase assay was carried out on the basis of DELFIA/Time-Resolved Fluorometry. The compounds were first
(§8) (1 picture or pasted object on this page, not shown here)

The test system of series [8] is HT-29. Kind of series: Antiproliferative assay (MTT). To be noted: Homo sapiens, HT-29 (colon), read-out: Antiproliferative activity IC50 ± SEM, HT-29. In kind it is cell-based.
From the text: as §3, §4, §5, §6, §7, §8

In series [9] the test system is MCF-7. Kind of series: Antiproliferative assay (MTT). In kind it is cell-based. Particulars: Homo sapiens, MCF7, MCF-7 (breast), read-out: Antiproliferative activity IC50 ± SEM, MCF-7.
From the text: as §3, §4, §5, §6, §7, §8

In series [10] the test system is Panc-1. Kind of series: Antiproliferative assay (MTT). It is filed as cell-based. Particulars: Homo sapiens, Panc-1 (pancreatic), read-out: Antiproliferative activity IC50 ± SEM, Panc-1.
From the text: as §3, §4, §5, §6, §7, §8

In series [11] the test system is four cancer cell lines (A-549, MCF-7, Panc-1, HT-29). Kind of series: Antiproliferative assay, average over four cancer cell lines. In kind it is cell-based. To be noted: Homo sapiens; average of the four cancer cell lines; read-out: Average IC50 (GI50). The source says:
Table 2 presents the four cancer cell lines’ median inhibitory concentration (IC50) and GI50 (average IC50) values.
The IC50 values were derived from dose-response tests. The reported data are derived from at least two independent studies, each comprising three replicates per concentration. See Supplementary Material A1 for more details.

Where only a bound is given, the exact number is not on record here.

Molecule `COc1ccc(-c2cc(-c3ccc(Cl)cc3)nc(SC)n2)cc1` [Compound 9, 4-(4-Chlorophenyl)-6-(4-methoxyphenyl)-2-(methylthio)pyrimidine] returned a melting point of 220 to 221 °C. In addition, in series [1], the inhibition at 10 µM is less than 0%. Moreover, the inhibition at 10 µM in series [2] is 7.95%. In addition, the inhibition at 10 µM in series [3] was 28.7%. For the same molecule, the inhibition at 10 µM in [4] stood at 4.44%. In addition, the inhibition at 10 µM in [5] worked out at 4.98%. Also, the viability at 4 days, 50 µM in series [6] turned out to be 91%. Moreover, the IC50 in series [7] came to 60 ± 5 nM. Also, the concentration for half-maximal inhibition (IC50) in series [8] came to 62 ± 6 nM. The IC50 in series [9] is 65 ± 6 nM. The IC50 in series [10] came out at 62 ± 6 nM. The IC50 in series [11] is 62 nM.
In turn, `CCSc1nc(-c2ccc(Cl)cc2)cc(-c2ccc(OC)cc2)n1` [Compound 10, 4-(4-Chlorophenyl)-2-(ethylthio)-6-(4-methoxyphenyl)pyrimidine] gave a melting point of 230 to 231 °C. For the same molecule, the inhibition at 10 µM in series [1] was less than 0%. Further, the inhibition at 10 µM in series [2] turned out to be 2.58%. Besides, the inhibition at 10 µM in [3] amounted to 25.5%. Further, the inhibition at 10 µM in series [4] is less than 0%. The inhibition at 10 µM in series [5] is 3.36%. The viability at 4 days, 50 µM in series [6] worked out at 90%. Further, the IC50 in series [7] is 75 ± 7 nM. Further, the IC50 in series [8] turned out to be 74 ± 7 nM. The IC50 in [9] was 79 ± 7 nM. Besides, the half-maximal inhibitory concentration (IC50) in series [10] amounted to 76 ± 7 nM. Moreover, the IC50 in series [11] stood at 76 nM.
With `CCCSc1nc(-c2ccc(Cl)cc2)cc(-c2ccc(OC)cc2)n1` [Compound 11, 4-(4-Chlorophenyl)-6-(4-methoxyphenyl)-2-(propylthio)pyrimidine], the melting point fell in the range of 228 to 230 °C. The inhibition at 10 µM in [1] is less than 0%. The inhibition at 10 µM in [2] is less than 0%. The inhibition at 10 µM in [3] was found to be 4.02%. Besides, in [4], the inhibition at 10 µM was less than 0%. In addition, the inhibition at 10 µM in [5] came out at 3.98%. The same molecule showed a viability at 4 days, 50 µM in [6] of 89%. In [7], the IC50 came to 52 ± 5 nM. Further, the IC50 in series [8] worked out at 53 ± 5 nM. Also, the IC50 in series [9] was 55 ± 5 nM. Also, the IC50 in [10] came to 54 ± 5 nM. Moreover, the IC50 in series [11] came out at 54 nM.
On to `COc1ccc(-c2cc(-c3ccc(Cl)cc3)nc(SC(C)C)n2)cc1` [Compound 12, 4-(4-Chlorophenyl)-2-(isopropylthio)-6-(4-methoxyphenyl)pyrimidine], for which the melting point lay in the range of 198 to 201 °C. Also, the inhibition at 10 µM in [1] was 1.06%. Moreover, the inhibition at 10 µM in series [2] was less than 0%. In [3], the inhibition at 10 µM stood at 28.8%. Besides, in series [4], the inhibition at 10 µM was less than 0%. In addition, in series [5], the inhibition at 10 µM turned out to be 17.9%. The molecule further returned a viability at 4 days, 50 µM in series [6] of 89%. Besides, the IC50 in [7] was found to be 35 ± 3 nM. Further, in [8], the IC50 was determined as 36 ± 3 nM. In [9], the IC50 was 37 ± 3 nM. The 50% inhibitory concentration (IC50) in series [10] was 36 ± 3 nM. In [11], the IC50 worked out at 36 nM.
Consider `C=CCSc1nc(-c2ccc(Cl)cc2)cc(-c2ccc(OC)cc2)n1` [Compound 13, 2-(Allylthio)-4-(4-chlorophenyl)-6-(4-methoxyphenyl)pyrimidine], for which the melting point lay in the range of 245 to 247 °C. For the same molecule, the inhibition at 10 µM in [1] was less than 0%. Further, the inhibition at 10 µM in series [2] is less than 0%. The inhibition at 10 µM in [3] was less than 0%. Moreover, the inhibition at 10 µM in [4] was less than 0%. Further, the inhibition at 10 µM in series [5] amounted to 1%. Also, the viability at 4 days, 50 µM in [6] is 90%. In series [7], the IC50 was 64 ± 6 nM. Besides, the IC50 in [8] was found to be 64 ± 6 nM. Also, in series [9], the IC50 is 68 ± 6 nM. The IC50 in series [10] turned out to be 66 ± 6 nM. The IC50 in series [11] came out at 66 nM.
Molecule `COc1ccc(CSc2nc(-c3ccc(OC)cc3)cc(-c3cccc(OC)c3)n2)cc1` [Compound 22, 2-(4-Methoxybenzylthio)-6-(3-methoxyphenyl)-4-(4-methoxyphenyl)pyrimidine] returned a viability at 4 days, 50 µM in [6] of 89%. In addition, the IC50 was determined as 21 ± 2 nM in series [7]; 23 ± 2 nM in series [8]; 23 ± 2 nM in series [9]; 22 ± 2 nM in series [10]; 22 nM in series [11].

As usually defined, the inhibition is the percentage by which the read-out fell short of the control. A word on the viability: it is the share of living cells, or the viability signal relative to a control. By IC50 is commonly meant the point on the concentration scale where inhibition reaches its midpoint. A word on the melting point: it is the temperature of the solid-liquid transition.

(Values after publication PMC11576293, “New series of 4,6-diaryl pyrimidines: facile synthesis and antiproliferative activity as dual EGFR/VEGFR-2 inhibitors” (Frontiers in Chemistry, 2024).)
